Measurements reported in patent publication US20200367493A1, “BIOCONTROL ENHANCERS” (YEDA RESEARCH AND DEVELOPMENT CO. LTD., priority 2016, published 2020).
Entries after “also recorded” stand apart in the source; their conditions may differ.

Assays:
tapA-sipW-tasA operon = test: tapA-sipW-tasA transcription, PtapA-gfp reporter; format: cell-based, Bacillus subtilis; conditions: B. subtilis; matrix genes (sinI, tapA reporters); 1 μM
Description: (§1) Planktonic growth, attachment to surfaces, induction of extracellular matrix genes tapA-sipW-tasA operon sinI regulator involved in biofilm formation, and biofilm development was measured and compared amongst the natural compounds identified by the screen. For the analysis for enhancement of biofilm formation and transcription of matrix genes 1 uM aqueous solutions comprising each natural compound were tested.
(§2) Gene expression: Gene expression was measure using reporter genes (luciferase or green fluorescent protein) Luminescence of a strains harboring sacA: PsinI-luciferase was measure in the presence or absence of 1 μM of the natural compounds presented in FIGS. 2A and 2B. Fluorescence of a strain harboring sacA::PtapA-gfp was measured in presence or absence of 1 μM of the natural compounds shown in FIGS. 2A and 2B. Results are a representative of six independent experiments; the SD represents an average of 5 wells.
(§3) The expression of SinI, the matrix regulator, was measured as was the expression of tapA-sipW-tasA operon, in the absence and presence of the natural compounds listed in FIG. 2B. Specifically, sinI transcription was monitored. SinI transcription is a direct readout for the activity of the genetic pathway resulting in matrix production and biofilm formation. sinI transcription in biofilm-inducing medium was monitored using the sinI promoter fused to luciferase.

B. subtilis 3610 = test: Pellicle assay (floating biofilm formation in MSgg medium); format: cell-based, Bacillus subtilis; conditions: for biofilm formation (promotion/induction/enhancement): B. subtilis 3610, 1 μM of the natural compound, compared with not treated; for pellicle formation (inhibition): B. subtilis, 1 μM
Source text: B. subtilis, NCBI 3610 (hereafter referred to as “3610”), forms robust and highly structured biofilms in liquid medium. When inoculated into a standing culture of minimal medium, 3610 initially grows planktonically as motile, single cells. The cells then migrate to the air-liquid interface, where they proliferate as long chains of non-motile cells. These chains are highly ordered in parallel patterns and are bound together tightly, presumably by an extracellular matrix (ECM), to form a floating biofilm (pellicle). Growth of the bundled chains continues, giving rise to larger biofilm structures that include the fruiting bodies. Thus, we consider pellicles as a highly robust setting for the study of B. subtilis biofilms
Two different assays were used to screen a natural compounds library (AnalytiCon Discovery GmbH Germany (http://www.ac-discovery.com/) for biofilm formation. A Petri Assay was used to observed changes in structure and size of biofilms, while a Pellicle Assay was used to study biofilm inhibitors and biofilm induction (FIG. 1).
The protocol for the pellicle essay comprised the following steps:
A 2× solution of rich, defined biofilm-inducing MSgg medium (Branda, S. S., Gonzalez-Pastor, J. E., Ben-Yehuda, S., Losick, R. & Kolter, R. Fruiting body formation by Bacillus subtilis. Proceedings of the National Academy of Sciences of the United States of America 98, 11621-11626, doi:10.1073/pnas.191384198 (2001)), without the calcium chloride and iron(III) chloride hexahydrate was prepared. After filter sterilization, the calcium chloride was added. The medium was ready to use directly or it could be stored at 4° C. in the dark.
A 1× dilution medium was prepared on the day of the experiment. The 2× MSgg medium was diluted to 1× with sterile distilled water (pellicles) or sterile 3% hot (80° C.) agar (biofilms) and iron(III) chloride hexahydrate added to a final concentration of 50 μM (pellicles) or […] (biofilms). Molecules for screening were then added.
Compared to the original MSgg recipe (Branda, S. S., et al. (2001) ibid), the medium used contained 50 μg/ml threonine and the iron concentration to grow biofilm colonies on solid MSgg medium was increased 2.5× to optimize the wrinkled colony morphology. After solidification of the agar, dry the solid MSgg plates in a biological hood for 30-45 min prior to the inoculation.
The next step was to streak out B. subtilis from a −80° C. stock (a LB culture of 10^9 cells/ml frozen in 20% glycerol) to isolate single colonies on a LB-1.5% agar plate with a sterile tip or applicator stick. Cultures were grown overnight at 30° C.
Following this, a single colony was picked from the LB-1.5% agar plate for growth in 3 ml LB broth at 37° C. for 4 hours in a shaking incubator (shaking speed 200 rpm) The LB broth was replaced with biofilm-inducing MSgg medium prior to inoculation by centrifuging 1 ml starter culture for 3 min at 6000 g, carefully removing the supernatant and re-suspending the pellet in 1 ml MSgg medium. The rest of the culture can be discharged.
During the growth of the starter culture, a 12-well cell-culture multidish plate containing 3 ml of MSgg medium without or with a concentration range of the small molecules (natural products to be tested) was prepared. To rule out edge effects, the location of the different concentrations was distributed across the multidish plate. Alternatively, use 24-well cell-culture multidish plates containing 1.5 ml of MSgg medium was used.
The wells of the 12-well cell-culture multidish plate were inoculated with […] of the washed starter culture (1:1000 dilution). In certain embodiments, a lower dilution ratio, i.e. 1:500 could be used. This decreases the development time of the pellicles.
Grow the pellicles at 23° C. was under static conditions for three days. The pellicles were no moved during this time, as it could affect the final surface morphology of the pellicle.
Pictures of the pellicles were taken with a high resolution camera. […]

sinI = sinI transcription, sinI promoter fused to luciferase reporter; format: cell-based, Bacillus subtilis; conditions: 1 μM; PsinI-luciferase, luminescence divided by OD600
Description: as §1, §2, §3

B. subtilis = test: Planktonic growth; format: cell-based, Bacillus subtilis; conditions: 1 μM
Description: as §1

P. sytingae pv tomato = test: Submerged biofilm formation, crystal violet staining of attached cells; format: cell-based
Source text: Similar to Example 1, a Pellicle Assay was used to study biofilm inhibitors (FIG. 1). Analysis of submerged biofilm formation by P. sytingae pv tomato included staining attached cells with crystal violet and quantified as known in the art (Mol Microbiology 28:449-461).

| Molecule | transcription expression of matrix genes (tapA-sipW-tasA operon) | biofilm formation (promotion/induction/enhancement) (B. subtilis 3610) | transcription of sinI (sinI) | effect on planktonic growth (B. subtilis) | pellicle formation (inhibition) (B. subtilis 3610) | attachment in the plant pathogen (inhibition) (P. sytingae pv tomato) |
| --- | --- | --- | --- | --- | --- | --- |
| COc1cc(O)c2c(=O)c(O[C@@H]3O[C@H](CO)[C@@H](O)[C@H](O)[C@H]3O[C@@H]3O[C@H](CO)[C@@H](O)[C@H](O)[C@H]3O)c(-c3ccc(O)c(O)c3)oc2c1 [3-(((2S,3R,4S,5S,6R)-4,5-dihydroxy-6-(hydroxymethyl)-3-(((2S,3R,4S,5S,6R)-3,4,5-trihydroxy-6-(hydroxymethyl)tetrahydro-2H-pyran-2-yl)oxy)tetrahydro-2H-pyran-2-yl)oxy)-2-(3,4-dihydroxyphenyl)-5-hydroxy-7-methoxy-4H-chromen-4-one] | enhance transcription expression of matrix genes | enhance biofilm formation; also recorded: promoted, induced, and enhanced | significantly enhanced |  |  |  |
| COc1cc(-c2cc(=O)c3c(O)c(OC)c(OC)c(O)c3o2)ccc1O [isothymonin, 5,8-dihydroxy-2-(4-hydroxy-3-methoxyphenyl)-6,7-dimethoxy-4H-chromen-4-one] | enhance transcription expression of matrix genes | enhance biofilm formation; also recorded: promoted, induced, and enhanced | significantly enhanced |  |  |  |
| COc1cc2oc(-c3ccc(O)c(O)c3)c(OC)c(=O)c2c(O)c1OC [2-(3,4-dihydroxyphenyl)-5-hydroxy-3,6,7-trimethoxy-4H-chromen-4-one] | enhance transcription expression of matrix genes | enhance biofilm formation; also recorded: promoted, induced, and enhanced | significantly enhanced |  |  |  |
| eupahakonenin B |  |  |  | inert to planktonic growth | blocked pellicle formation |  |
| C=C[C@H]1[C@H](OC2OC(CO)C(O)C(O)C2O)OC=C(C(=O)OC)[C@H]1CCOC(=O)c1cc(O)c(O)c(O)c1 (stereo partly drawn) [cornuside, (2S,3R,4S)-methyl 2-((3,4,5-trihydroxy-6-(hydroxymethyl)tetrahydro-2H-pyran-2-yl)oxy)-4-(2-((3,4,5-trihydroxybenzoyl)oxy)ethyl)-3-vinyl-3,4-dihydro-2H-pyran-5-carboxylate] | enhance transcription expression of matrix genes | enhance biofilm formation; also recorded: promoted, induced, and enhanced | significantly enhanced |  |  |  |
| CCCCCc1cc(O)c(C/C=C(\C)CCC=C(C)C)c(O)c1 [(E)-2-(3,7-dimethylocta-2,6-dien-1-yl)-5-pentylbenzene-1,3-diol] |  |  |  | inert to planktonic growth | blocked pellicle formation; also recorded: mildly inhibited | strongly inhibited attachment |
